Patent US20210085711A1 (Japan Tobacco Inc., priority 2017, published 2021)

Experiments:
Format in all cases: in vivo, human
[1] = tested on: patients with hypermenorrhea and/or patients with hypermenorrhea-associated gynecologic diseases (iron-deficiency anemia patients); test: Phase II clinical trial of JTT-751: serum ferritin value
Description: (§1) This test was a three-stage safety and efficacy clinical trial at multi-facilities. The first stage was a pre-observation period (Day −40 to Day −1), the second stage was an administration period (Day 1 to Day 48) (efficacy and safety evaluation period), and the third stage was a post-observation period (Day 49 to Day 63) (efficacy and safety evaluation period). The safety evaluation and efficacy evaluation were performed by multi-facility collaboration, placebo control, random allocation, double-blind trial, and parallel group comparison test.
(§2) (1) Japanese patients who are 20 or more and less than 65 years old at the time of agreement and can visit an outpatient clinic (2) Patients who have an Hb value (measured using HemoCue® Hb 201 DM analyzer in the institute of clinical practice) of 7.0 g/dL or more and less than 11.0 g/dL on both the observation start date and Week 0, and the difference between the two days is 1.0 g/dL or less (3) Patients with a TIBC of 360 μg/dL or more or a serum ferritin value of less than 12 ng/mL on the observation start date
(§3) The administration period of the trial drug is seven weeks which starts from the next day of the Week 0 visit to the day before the Week 7 visit, provided that the trial drug is not taken on the scheduled Week 3 visit.
(§4) (2) Subsidiary evaluation items 1) Erythrocyte-related examination values and amount of change from Week 0 at each observation date 2) Iron-related test values and amount of change from Week 0 at each observation date 3) Achievement rate of target Hb value (female; 12.0 g/dL or more, male; 13.0 g/dL or more) at each observation date 4) Achievement rate of 1.0 g/dL or more and achievement rate of 2.0 g/dL or more in Hb value improvement from Week 0 at each observation date 5) Average daily change of Hb value from Week 0 to each observation date
(§5) The blood hemoglobin value (Hb), the serum iron level, the serum ferritin value, the total iron-binding capacity (TIBC) and the transferrin saturation rate (TSAT), and the mean corpuscular volume (MCV) were each examined at the observation start date, Week 0, Week 3, Week 7, the end of administration and the consultation at nine weeks after Week 0; the hepcidin concentration (Hepcidin 25) and the serum soluble transferrin receptor concentration (sTfR) were each examined on Week 0, Week 3 and Week 7 and at the end of administration; and the C-terminal FGF23 value (cFGF23) and the intact FGF23 value (iFGF23) were each examined on Week 0 and Week 7 and at the end of administration.

[2] = tested on: patients with hypermenorrhea and/or patients with hypermenorrhea-associated gynecologic diseases (iron-deficiency anemia patients); test: Phase II clinical trial of JTT-751: hepcidin concentration (Hepcidin 25)
Description: as §1, §2, §3, §4, §5

[3] = tested on: patients with hypermenorrhea and/or patients with hypermenorrhea-associated gynecologic diseases (iron-deficiency anemia patients); test: Phase II clinical trial of JTT-751: total iron-binding capacity (TIBC)
Description: as §1, §2, §3, §4, §5

[4] = 250 mg/day, 9 weeks after Week 0
[5] = 250 mg/day, End of administration
[6] = 250 mg/day, Week 3 (Week 0 not given)
[7] = 500 mg/day, 9 weeks after Week 0
[8] = 500 mg/day, End of administration
[9] = 500 mg/day, Week 3 (Week 0 not given)
[10] = 1000 mg/day, 9 weeks after Week 0
[11] = 1000 mg/day, End of administration
[12] = 1000 mg/day, Week 3 (Week 0 not given)
[13] = 1500 mg/day, 9 weeks after Week 0
[14] = 1500 mg/day, End of administration
[15] = 1500 mg/day, Week 3 (Week 0 not given)
[16] = End of administration, JTT-751 250 mg group
[17] = End of administration, JTT-751 500 mg group
[18] = End of administration, JTT-751 1000 mg group
[19] = End of administration, JTT-751 1500 mg group
[20] = Week 0 (baseline), JTT-751 250 mg group
[21] = Week 0 (baseline), JTT-751 500 mg group
[22] = Week 0 (baseline), JTT-751 1000 mg group
[23] = Week 0 (baseline), JTT-751 1500 mg group

## Ferric citrate [JTT-751]
[1]; [4]
  Ferritin, Mean: 2.88 ng/mL
  Ferritin, Median: 2.60 ng/mL
[1]; [5]
  Ferritin, Mean: 11.38 ng/mL
  Ferritin, Median: 11.45 ng/mL
[1]; [6]
  Ferritin, Mean: 11.16 ng/mL
  Ferritin, Median: 7.70 ng/mL
[1]; 250 mg/day, Week 7
  Ferritin, Mean: 11.38 ng/mL
  Ferritin, Median: 11.45 ng/mL
[1]; [7]
  Ferritin, Mean: 4.28 ng/mL
  Ferritin, Median: 3.60 ng/mL
[1]; [8]
  Ferritin, Mean: 16.12 ng/mL
  Ferritin, Median: 14.30 ng/mL
[1]; [9]
  Ferritin, Mean: 15.26 ng/mL
  Ferritin, Median: 12.40 ng/mL
[1]; 500 mg/day, Week 7
  Ferritin, Mean: 16.12 ng/mL
  Ferritin, Median: 14.30 ng/mL
[1]; [10]
  Ferritin, Mean: 7.51 ng/mL
  Ferritin, Median: 7.20 ng/mL
[1]; [11]
  Ferritin, Mean: 17.02 ng/mL
  Ferritin, Median: 16.30 ng/mL
[1]; [12]
  Ferritin, Mean: 26.96 ng/mL
  Ferritin, Median: 23.20 ng/mL
[1]; 1000 mg/day, Week 7
  Ferritin, Mean: 17.02 ng/mL
  Ferritin, Median: 16.30 ng/mL
[1]; [13]
  Ferritin, Mean: 5.83 ng/mL
  Ferritin, Median: 5.35 ng/mL
[1]; [14]
  Ferritin, Mean: 17.38 ng/mL
  Ferritin, Median: 16.60 ng/mL
[1]; [15]
  Ferritin, Mean: 20.43 ng/mL
  Ferritin, Median: 22.20 ng/mL
[1]; 1500 mg/day, Week 7
  Ferritin, Mean: 17.38 ng/mL
  Ferritin, Median: 16.60 ng/mL
[1]; continuous administration from Week 0 to Week 3
  serum ferritin value (printed: serum iron level), increased to a normal value: 12 to 30 ng/mL
[2]; [16]
  Hepcidin-25, Mean: 2.196 pg/mL
  Hepcidin-25, Median: 1.520 pg/mL
[2]; [17]
  Hepcidin-25, Mean: 4.818 pg/mL
  Hepcidin-25, Median: 3.925 pg/mL
[2]; [18]
  Hepcidin-25, Mean: 11.465 pg/mL
  Hepcidin-25, Median: 9.680 pg/mL
[2]; [19]
  Hepcidin-25, Mean: 11.674 pg/mL
  Hepcidin-25, Median: 8.440 pg/mL
[2]; [20]
  Hepcidin-25, Mean: 0.726 pg/mL
  Hepcidin-25, Median: 0.715 pg/mL
[2]; [21]
  Hepcidin-25, Mean: 0.593 pg/mL
  Hepcidin-25, Median: 0.290 pg/mL
[2]; [22]
  Hepcidin-25, Mean: 0.509 pg/mL
  Hepcidin-25, Median: 0.410 pg/mL
[2]; [23]
  Hepcidin-25, Mean: 0.631 pg/mL
  Hepcidin-25, Median: 0.600 pg/mL
[2]; Week 0, Week 3 and Week 7
  Hepcidin 25 concentration, time-dependent change: increased along with the continuous administration
[2]; Week 3, JTT-751 250 mg group
  Hepcidin-25, Mean: 1.289 pg/mL
  Hepcidin-25, Median: 0.695 pg/mL
[2]; Week 3, JTT-751 500 mg group
  Hepcidin-25, Mean: 1.839 pg/mL
  Hepcidin-25, Median: 0.895 pg/mL
[2]; Week 3, JTT-751 1000 mg group
  Hepcidin-25, Mean: 8.623 pg/mL
  Hepcidin-25, Median: 8.430 pg/mL
[2]; Week 3, JTT-751 1500 mg group
  Hepcidin-25, Mean: 7.813 pg/mL
  Hepcidin-25, Median: 5.940 pg/mL
[2]; Week 7, JTT-751 250 mg group
  Hepcidin-25, Mean: 2.196 pg/mL
  Hepcidin-25, Median: 1.520 pg/mL
[2]; Week 7, JTT-751 500 mg group
  Hepcidin-25, Mean: 4.818 pg/mL
  Hepcidin-25, Median: 3.925 pg/mL
[2]; Week 7, JTT-751 1000 mg group
  Hepcidin-25, Mean: 11.465 pg/mL
  Hepcidin-25, Median: 9.680 pg/mL
[2]; Week 7, JTT-751 1500 mg group
  Hepcidin-25, Mean: 11.674 pg/mL
  Hepcidin-25, Median: 8.440 pg/mL
[3]; [4]
  TIBC, profile from the baseline (value at Week 0), Mean: -42.8 µg/dL
  TIBC, profile from the baseline (value at Week 0), Median: -39.0 µg/dL
[3]; [5]
  TIBC, profile from the baseline (value at Week 0), Mean: -60.1 µg/dL
  TIBC, profile from the baseline (value at Week 0), Median: -62.0 µg/dL
[3]; 250 mg/day, Week 3
  TIBC, profile from the baseline (value at Week 0), Mean: -28.3 µg/dL
  TIBC, profile from the baseline (value at Week 0), Median: -24.0 µg/dL
[3]; 250 mg/day, Week 7
  TIBC, profile from the baseline (value at Week 0), Mean: -60.1 µg/dL
  TIBC, profile from the baseline (value at Week 0), Median: -62.0 µg/dL
[3]; [7]
  TIBC, profile from the baseline (value at Week 0), Mean: -49.6 µg/dL
  TIBC, profile from the baseline (value at Week 0), Median: -49.0 µg/dL
[3]; [8]
  TIBC, profile from the baseline (value at Week 0), Mean: -61.7 µg/dL
  TIBC, profile from the baseline (value at Week 0), Median: -49.5 µg/dL
[3]; 500 mg/day, Week 3
  TIBC, profile from the baseline (value at Week 0), Mean: -30.9 µg/dL
  TIBC, profile from the baseline (value at Week 0), Median: -28.5 µg/dL
[3]; 500 mg/day, Week 7
  TIBC, profile from the baseline (value at Week 0), Mean: -61.7 µg/dL
  TIBC, profile from the baseline (value at Week 0), Median: -49.5 µg/dL
[3]; [10]
  TIBC, profile from the baseline (value at Week 0), Mean: -68.7 µg/dL
  TIBC, profile from the baseline (value at Week 0), Median: -75.0 µg/dL
[3]; [11]
  TIBC, profile from the baseline (value at Week 0), Mean: -80.4 µg/dL
  TIBC, profile from the baseline (value at Week 0), Median: -70.0 µg/dL
[3]; 1000 mg/day, Week 3
  TIBC, profile from the baseline (value at Week 0), Mean: -54.1 µg/dL
  TIBC, profile from the baseline (value at Week 0), Median: -54.0 µg/dL
[3]; 1000 mg/day, Week 7
  TIBC, profile from the baseline (value at Week 0), Mean: -80.4 µg/dL
  TIBC, profile from the baseline (value at Week 0), Median: -70.0 µg/dL
[3]; [13]
  TIBC, profile from the baseline (value at Week 0), Mean: -63.0 µg/dL
  TIBC, profile from the baseline (value at Week 0), Median: -68.5 µg/dL
[3]; [14]
  TIBC, profile from the baseline (value at Week 0), Mean: -79.7 µg/dL
  TIBC, profile from the baseline (value at Week 0), Median: -84.0 µg/dL
[3]; 1500 mg/day, Week 3
  TIBC, profile from the baseline (value at Week 0), Mean: -60.7 µg/dL
  TIBC, profile from the baseline (value at Week 0), Median: -70.0 µg/dL
[3]; 1500 mg/day, Week 7
  TIBC, profile from the baseline (value at Week 0), Mean: -79.7 µg/dL
  TIBC, profile from the baseline (value at Week 0), Median: -84.0 µg/dL
[3]; Week 0, Week 3 and Week 7
  total iron-binding capacity (TIBC), time-dependent change: decreased along with the continuous administration
